Data from patent US9215877B2, “Compositions including a vacancy-engineered(VE)-ZnO nanocomposite, methods of making a composition , method of using a composition” (priority 2014, dated 2015).

Test system: E. coli
Assay: Minimum inhibitory concentration (MIC) against E. coli
Type: cell-based
Conditions: Escherichia coli, read-out: MIC (μg/mL) in metallic Zn or Cu

`O=C([O-])c1ccccc1O.[Na+]` [Capping Agent, sodium salicylate] gave an MIC of 3000 µg/mL.
